Measured values published in US20180265915A1, “TRANSCRIPTION FACTOR DECOYS” (priority 2008, published 2018).
“Also recorded” adds a separate entry of the source.

Legend:
E. coli [1] = assay: FabB TFD growth assay with cerulenin in LB, polymixin co-transfectant; type: cell-based, Escherichia coli
Protocol: For example, a FabB decoy which targets the regulation of genes essential for fatty acid synthesis may be tested against suitable strain, e.g. E. coli grown in e.g. Luria-Bertani LB media (1% [w/v] Bacto-tryptone, 0.5% [w/v] Yeast extract, 1% [w/v] NaCl) in the presence of an antibiotic which acts on the process of fatty acid synthesis, e.g. Cerulenin.
The effect of TFDs on the growth of E. coli bacterial cultures was measured as described in Example 4.1 with a few modifications: the media used was LB; the co-transfectant used was 40 nM polymixin, rather than gramicidin; the media was also supplemented with 10 μg/ml Cerulenin (CER). CER is an antibiotic that acts on fatty acid synthesis.

E. coli [2] = assay: FabB decoy growth assay with cerulenin in 96-well plate; type: cell-based, Escherichia coli; details: Rich media supplemented with 1 μg/ml cerulenin
Protocol: The decoy was prepared as described in Example 1.1 and used at various concentrations to transfect a well of a 96-well plate containing 200 μl of Rich media (10 g Tryptone, 5 g NaCl, 1 g Yeast extract per litre and supplemented with 0.2% glucose and 0.4% acetate, final concentrations) supplemented with 1 μg/ml cerulenin (Sigma). The plates were incubated at 37° C. with shaking and absorbance readings (at 595 nM) were taken using a plate reader. All data points were performed in triplicate.

S. aureus [3] = assay: Growth of S. aureus transfected by electroporation under conditions of stress; type: cell-based, Staphylococcus aureus; details: BHI or LB media with 30 mM KOH, vs mock-electroporation or unrelated sequence
Protocol: For example, stress response can be induced in a suitable strain e.g. S. aureus by growing in, e.g. LB media under conditions of stress, e.g. alkali conditions. For example LB media containing KOH, e.g. at 30 mM may be used. Untreated bacteria grow well in this media, due to the induction of the stress response by the alkali conditions, whereas those treated with the SA_sigB decoy, targeting the regulation of sigB which is a major part of the regulatory response to stress, grow poorly.
Decoy polynucleotides were transfected into S. aureus by electroporation. Bacterial cells were prepared by standard methods. Briefy, cells were grown to early exponential phase in LB media at 37° C. as defined as reaching an Absorbance of 0.3 at […]. The cells were chilled to 4° C. and harvested by low speed centrifugation and washed three times in a similar volume of sterile, ice-cold 10% (v/v) glycerol. Finally the cells were resuspended in a tenth of their original volume in 10% glycerol. […] 200 μl of cells were aliquoted into wells of a 96 well plate that was incubated at 37° C. with moderate shaking, growth was monitored by measuring absorbance.

S. aureus [4] = assay: Growth studies in 96-well plates (DOTAP/Gramicidin transfection); type: cell-based, Staphylococcus aureus; details: 10 nM TFD, DOTAP, 60 nM Gramicidin
Protocol: Cholesterol/Cy5-labeled decoy polynucleotides were prepared as in section 5.1. Typically 1 Lg of TFD was then complexed with 0.3 μl of the liposomal transfection reagent DOTAP (Roche) and incubated at room temperature for 10 min. The assays to determine their effect on growth of bacterial cells were performed using 96 well plates, each well containing 200 μl of broth consisting of BHI media (from Becton Dickinson), which is not iron-limited, supplemented with 60 nM Gramicidin (from Sigma Corporation. Cat# G5002) or iron-depleted media (NRPMI) similarly supplemented with Gramicidin. The method for iron-depletion is described in full elsewhere (Science (2004) 305:1626-1628). 1 μl of various concentrations of a Cholesterol/Cy5-labeled decoy complexed with TFD were added to each well and their effect on bacterial growth of S. aureus monitored by measuring absorbance of the broth at intervals during incubation. The plates were incubated at 37° C. with shaking and absorbance readings (at 450 nM) were taken using a plate reader. Several decoys were tested: Sig, fhu and SsaA.

M. smegmatis = assay: WhiB7 decoy antibiotic sensitisation, growth in shake flasks; type: cell-based, Mycobacterium smegmatis; details: 100 nM TFD; sub-inhibitory isoniazid (IZ) or rifampicin (RF); 9H11 + 10% ODAC, 37° C.
Protocol: A decoy polynucleotide containing the WhiB7 decoy sequence was prepared as described in Example 1.1 and various concentrations were used to transfect M. smegmatis grown in 20 ml of broth (in 200 ml shake flasks containing a wire baffle). The media used was 9H11 (Becton Dickinson) supplemented with 10% ODAC (Becton Dickinson) and sub-inhibitory concentrations of the antibiotics isoniazid (IZ) or rifampicin (RF). The flasks were incubated at 37° C. with shaking and at various intervals samples were withdrawn and their absorbance measured (to monitor cell growth). Flasks were either treated with 100 nM of the WhiB7 TFD (+) or treated with the negative control TFD (−).

With “FabB TFD: decoy containing the binding site for the FadR regulator, SEQ ID NO: 6 (DNA TTTATTCCGAACTGATCGGACTTGTTCAGCGTACACGTGTTAGCTATCCTGCGTGCTTCA; transcription factor decoy, method of preparation not given here for this one, further chemistry not given here)” the “sensitivity of E. coli to the action of cerulenin” value (E. coli [1]; 10 nM TFD, LB, 40 nM polymixin, 10 μg/ml Cerulenin) was “sensitises the bacteria to antibiotics (cerulenin); also recorded: rendered the bacteria sensitive to the action of cerulenin”, the “effect on cells at 20 ug/ml cerulenin” value (E. coli [1]; FabB TFD plus cerulenin) was “the cells are being killed by the synergenistic action” and the “growth of E. coli treated with the decoy versus untreated” value (E. coli [1]; LB media, Cerulenin 10 μg/ml) was “grow markedly more slowly and to lower final density”. For the same substance, the “growth of E. coli in broth (absorbance at 595 nM)” value (E. coli [2]) was “caused the cells to hardly grow at all”.

With “LytM TFD: YycG/YycF binding site in LytM promoter, SEQ ID NO: 7 (DNA GCTATTTTGTAATGACAATGTAATGAGTTTAGTAAAAA; transcription factor decoy, made by PCR or oligonucleotide ligation, further chemistry not given here; listed as Staphylococcus aureus)” the “growth of S. aureus under conditions of stress” value (S. aureus [3]) was “capable of slowing the growth”.

For “SsaA TFD: contains the binding site for the two-component regulator WalR, SEQ ID NO: 8 (DNA ATTACAAATTTGTAACAGACTTATTTTA; transcription factor decoy, made by PCR or oligonucleotide ligation, further chemistry not given here; listed as Staphylococcus aureus)”, the “effect on bacterial growth in BHI medium (non-iron limiting)” value (S. aureus [4]) was “measurable delay in bacterial growth”, the “effect on bacterial growth in iron-limited media” value (S. aureus [4]; NRPMI) was “no effect on bacterial growth” and the “growth of S. aureus under conditions of stress” value (S. aureus [3]) was “capable of slowing the growth”.

For “WhiB7 TFD: decoy with WhiB7 binding site, SEQ ID NO: 5, prepared by PCR with cholesterol/Cy5 primers (DNA TGGCCACGGATCCGGGTGACTGCGGGTCCGTGGCCT; PCR-made decoy including vector flanks, 5' cholesterol and Cy5 primer ends, further chemistry not given here)”, the “sensitivity of cells to the antibiotics tested (growth by absorbance)” value (M. smegmatis) was “rendered sensitive to both the antibiotics tested”.
